From BindingDB's records for doi:10.1016/S1074-5521(01)00045-X (The Scripps Research Institute, 2001)
Numbering of substitutions follows the chain as printed.

What was measured:
Assay in all cases: Inhibition Assay
[1] = target: T1, Beta-hexosaminidase subunit beta (Homo sapiens, UniProt P07686)
T1 sequence (P07686 whole entry): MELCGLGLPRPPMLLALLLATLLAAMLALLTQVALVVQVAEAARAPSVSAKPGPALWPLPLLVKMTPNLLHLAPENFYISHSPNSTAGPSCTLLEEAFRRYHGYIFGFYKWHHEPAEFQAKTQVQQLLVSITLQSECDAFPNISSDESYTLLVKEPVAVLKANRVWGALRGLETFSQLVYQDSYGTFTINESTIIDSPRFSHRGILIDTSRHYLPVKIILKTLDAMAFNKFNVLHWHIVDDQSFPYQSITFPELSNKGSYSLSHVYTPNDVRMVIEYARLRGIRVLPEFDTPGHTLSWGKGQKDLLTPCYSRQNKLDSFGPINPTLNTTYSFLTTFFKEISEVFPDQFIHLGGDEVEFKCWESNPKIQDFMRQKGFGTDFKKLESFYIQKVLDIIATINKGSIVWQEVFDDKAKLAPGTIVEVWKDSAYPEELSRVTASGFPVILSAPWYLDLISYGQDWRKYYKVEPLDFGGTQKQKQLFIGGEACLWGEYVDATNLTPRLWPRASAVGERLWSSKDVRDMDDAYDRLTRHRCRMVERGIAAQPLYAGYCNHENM
Protocol: (§1) Hexosaminidase activity assay was measured by fluorometry, VersaFluor Fluorometer from Bio-Rad.

[2] = target: T2, Beta-hexosaminidase subunit beta (Homo sapiens, UniProt P07686); remark: listed apart in the source
T2 sequence (P07686 whole entry): T1 sequence (P07686 whole entry) with L62S
Protocol: as §1

[3] = target: T3, Beta-hexosaminidase subunit alpha (Homo sapiens, UniProt P06865)
T3 sequence (P06865 whole entry): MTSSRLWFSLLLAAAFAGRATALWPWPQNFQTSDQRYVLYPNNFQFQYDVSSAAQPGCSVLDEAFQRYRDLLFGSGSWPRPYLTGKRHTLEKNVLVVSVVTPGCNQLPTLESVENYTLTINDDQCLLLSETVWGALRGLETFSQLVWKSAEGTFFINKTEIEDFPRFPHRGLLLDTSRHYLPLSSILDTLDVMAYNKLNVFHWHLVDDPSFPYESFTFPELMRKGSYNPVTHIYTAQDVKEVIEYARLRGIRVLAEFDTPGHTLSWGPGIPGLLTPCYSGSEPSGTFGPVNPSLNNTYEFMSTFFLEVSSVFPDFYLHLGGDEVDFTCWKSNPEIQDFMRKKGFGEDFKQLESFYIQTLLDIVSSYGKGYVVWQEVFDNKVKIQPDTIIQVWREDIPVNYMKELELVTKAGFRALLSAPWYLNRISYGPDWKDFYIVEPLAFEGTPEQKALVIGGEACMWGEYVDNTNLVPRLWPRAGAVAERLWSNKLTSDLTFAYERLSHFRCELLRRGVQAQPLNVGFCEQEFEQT
Protocol: as §1

Row | SMILES | Ki [1] [nM] | Ki [2] [nM] | Ki [3] [µM]
1 | CC(=O)N[C@H]1CN[C@H](CO)[C@@H](O)[C@@H]1O | 1200 |  | 
2 | CC(=O)N[C@@H]1N[C@H](CO)[C@@H](O)[C@@H]1O [Iminocyclitol, 1] |  | 240 | 
3 | CC(=O)N[C@H]1[C@@H](O)[C@H](O)[C@@H](CO)N1C [Iminocyclitol, 2] |  | 65 | 
4 | CC(=O)N[C@H]1N[C@H](CO)[C@@H](O)[C@@H]1O [Iminocyclitol, 3] |  | 40 | 
5 | CC(=O)N[C@@H]1[C@@H](O)[C@H](O)[C@@H](CO)N1C [Iminocyclitol, 4] |  | 24 | 
6 | CC(=O)NC1CN(C)C(CO)C(O)C1O (stereo not given) [Iminocyclitol, 6] |  | 860 | 
7 | CC(=O)N[C@@H]1[C@@H](O)[C@H](O)[C@@H](OS(=O)(=O)O)N1C [Iminocyclitol, 8] |  | 5000 | 0.1
8 | CC1=NC2C(OC(OS(=O)(=O)O)C(O)C2O)S1 (stereo not given) [Iminocyclitol, 10] |  | 100000 | 10
